Data on six molecules can be found in patent US20180321224A1, “COMPOSITIONS AND METHODS FOR INCREASING HEPATOCYTE FUNCTIONAL LIFETIME IN VITRO” (Colorado State University Research Foundation, priority 2015, published 2018).

For series [1], the system named is primary human hepatocytes in micropatterned co-cultures (MPCCs). Put plainly: Hepatotoxicity screening in MPCCs pre-cultured in physiologic medium (urea synthesis). Conditions: for Calculated TC50 (interpolated concentration where urea synthesis drops below 50% of the vehicle control): MPCCs in physiologic medium for 10 days, treated 2 times over 5 days in serum free medium, vehicle DMSO. As for the experimental part: Therefore, a drug screen with cultures after they were subjected to physiologic medium for 10 days was carried out (FIG. 5). […] Drug treatments were carried out in serum free medium to prevent potential drug-protein interactions.
Urea synthesis and glucose production was quantified using previously described methods. Since human serum contains significant amounts of […], an alternative protocol to quantify MPCC albumin production was used. Specifically, after 2 and 3 weeks of culture, cultures were washed 3 times with 1×PBS, and then incubated for 24 hours in serum free medium. Albumin was then measured in this medium using a sandwich ELISA method. To account for potential residual albumin in cell culture medium, any differences in albumin production between cultures incubated in 5%, 7.5% and 10% serum were examined. […] Enzyme activity was assessed using the methods previously described.
Drug toxicity and enzyme induction were assessed as previously described.

For series [2] the following is noted: average maximal drug concentration observed in patients after administering the drug; cited from earlier work.
[3] abbreviates: after 2 treatments over 5 days at 25*Cmax and 100*Cmax, serum free medium, MPCCs pre-cultured in physiologic medium 10 days.

Where two headings read alike, the source gives them in different places.

`CC(=O)Oc1ccccc1C(=O)O` [aspirin]: the “Toxicity categorization by urea synthesis in MPCC supernatants (toxic if below 50% of vehicle control)” value in series [1] is recorded as “no significant loss in urea synthesis”.

Consider `C[C@@H]1C[C@H]2[C@@H]3CCC4=CC(=O)C=C[C@]4(C)[C@@]3(F)[C@@H](O)C[C@]2(C)[C@@]1(O)C(=O)CO` [dexamethasone], for which, in series [1], the “Toxicity categorization by urea synthesis in MPCC supernatants (toxic if below 50% of vehicle control)” value was “no significant loss in urea synthesis”.

As to `Clc1ccc(COC(Cn2ccnc2)c2ccc(Cl)cc2Cl)c(Cl)c1` (stereo not shown) [miconazole], in series [1], the “Toxicity categorization by urea synthesis in MPCC supernatants (toxic if below 50% of vehicle control)” value is given as “no significant loss in urea synthesis”.

As to `C[C@]12C=CC(=O)C=C1CC[C@@H]1[C@@H]2C(=O)C[C@@]2(C)[C@H]1CC[C@]2(O)C(=O)CO` [prednisone], the “Toxicity categorization by urea synthesis in MPCC supernatants (toxic if below 50% of vehicle control)” value in series [1] is on record as “no significant loss in urea synthesis”.

As for piroxicam, in series [2], the Cmax was 5.13 µM. In addition, the “Calculated TC50 (interpolated concentration where urea synthesis drops below 50% of the vehicle control)” value in series [1] was 2901 µM. For the same molecule, the “Toxicity categorization by urea synthesis in MPCC supernatants (toxic if below 50% of vehicle control)” value in series [1] (setting [3]) is “toxic”.

Consider troglitazone, for which, in series [2], the Cmax was 6.39 µM. In addition, the “Calculated TC50 (interpolated concentration where urea synthesis drops below 50% of the vehicle control)” value in series [1] is 1555 µM. Besides, in series [1] (setting [3]), the “Toxicity categorization by urea synthesis in MPCC supernatants (toxic if below 50% of vehicle control)” value is recorded as “toxic”.

A word on the Cmax: it is the maximum level reached in the sampled fluid or tissue.
